Reference: the Kinase Knowledgebase extract (Sharma et al. 2016)
Where “and” joins values, the source holds several entries; their conditions need not be identical. Identical values can stand only once. Blank lines part the entries; values can stand above or below the molecule they belong to.

Key:
[1] = target: MAPK14 (human) (UniProt Q16539); test: Inhibition of TNF-alpha Production in LPS Stimulated Whole Blood; settings: blood cells
[2] = target: MAPK14 (human) (UniProt Q16539); test: Inhibition of IL-beta Production in LPS Stimulated Whole Blood; settings: blood cells
[3] = target: MAPK14 (human) (UniProt Q16539); test: Inhibition of TNF-alpha Production in PBMC Cells
[4] = target: ROCK2 (human) (UniProt O75116); test: Assessment of ROCK2 Kinase Activity (Fluorescence Polarization Assay)
ROCK2 (human), sequence (O75116 whole entry, looked up): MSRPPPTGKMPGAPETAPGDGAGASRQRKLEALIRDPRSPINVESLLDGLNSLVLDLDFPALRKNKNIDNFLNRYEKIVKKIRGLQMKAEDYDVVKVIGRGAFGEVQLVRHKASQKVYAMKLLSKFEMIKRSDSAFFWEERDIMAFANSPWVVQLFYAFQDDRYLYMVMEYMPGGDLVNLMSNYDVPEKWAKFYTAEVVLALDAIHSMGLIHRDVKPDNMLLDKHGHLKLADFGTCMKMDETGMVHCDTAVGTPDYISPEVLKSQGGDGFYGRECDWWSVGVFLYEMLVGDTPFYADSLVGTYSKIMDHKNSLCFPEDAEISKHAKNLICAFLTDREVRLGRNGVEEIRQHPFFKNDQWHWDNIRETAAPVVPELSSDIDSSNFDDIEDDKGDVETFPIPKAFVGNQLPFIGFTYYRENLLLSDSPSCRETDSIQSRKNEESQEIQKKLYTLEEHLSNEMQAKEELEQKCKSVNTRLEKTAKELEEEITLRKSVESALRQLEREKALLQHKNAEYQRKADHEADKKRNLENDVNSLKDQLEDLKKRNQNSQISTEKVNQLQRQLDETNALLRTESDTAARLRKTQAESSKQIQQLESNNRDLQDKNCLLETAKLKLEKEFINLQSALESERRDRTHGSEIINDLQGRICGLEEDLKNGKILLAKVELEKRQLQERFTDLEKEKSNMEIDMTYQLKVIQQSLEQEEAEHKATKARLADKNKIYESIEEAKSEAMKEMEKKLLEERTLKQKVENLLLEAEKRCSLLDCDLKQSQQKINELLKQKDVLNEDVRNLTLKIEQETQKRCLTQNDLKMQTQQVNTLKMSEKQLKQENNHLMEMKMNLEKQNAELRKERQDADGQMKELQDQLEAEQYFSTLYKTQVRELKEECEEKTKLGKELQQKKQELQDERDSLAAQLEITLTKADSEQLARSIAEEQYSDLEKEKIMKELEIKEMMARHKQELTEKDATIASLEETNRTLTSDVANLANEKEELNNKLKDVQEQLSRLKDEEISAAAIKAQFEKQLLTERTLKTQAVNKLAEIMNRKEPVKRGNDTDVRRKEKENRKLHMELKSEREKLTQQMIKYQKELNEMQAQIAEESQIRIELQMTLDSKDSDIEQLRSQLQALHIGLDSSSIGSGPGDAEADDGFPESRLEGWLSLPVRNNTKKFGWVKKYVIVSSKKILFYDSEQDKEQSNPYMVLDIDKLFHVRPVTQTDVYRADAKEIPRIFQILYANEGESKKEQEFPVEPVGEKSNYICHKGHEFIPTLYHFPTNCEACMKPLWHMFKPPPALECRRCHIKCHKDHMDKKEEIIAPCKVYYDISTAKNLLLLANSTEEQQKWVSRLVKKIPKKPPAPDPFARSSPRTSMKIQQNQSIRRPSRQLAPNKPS

[5] = target: EGFR (human) (UniProt P00533); settings: A431
EGFR (human), sequence (P00533 whole entry, looked up): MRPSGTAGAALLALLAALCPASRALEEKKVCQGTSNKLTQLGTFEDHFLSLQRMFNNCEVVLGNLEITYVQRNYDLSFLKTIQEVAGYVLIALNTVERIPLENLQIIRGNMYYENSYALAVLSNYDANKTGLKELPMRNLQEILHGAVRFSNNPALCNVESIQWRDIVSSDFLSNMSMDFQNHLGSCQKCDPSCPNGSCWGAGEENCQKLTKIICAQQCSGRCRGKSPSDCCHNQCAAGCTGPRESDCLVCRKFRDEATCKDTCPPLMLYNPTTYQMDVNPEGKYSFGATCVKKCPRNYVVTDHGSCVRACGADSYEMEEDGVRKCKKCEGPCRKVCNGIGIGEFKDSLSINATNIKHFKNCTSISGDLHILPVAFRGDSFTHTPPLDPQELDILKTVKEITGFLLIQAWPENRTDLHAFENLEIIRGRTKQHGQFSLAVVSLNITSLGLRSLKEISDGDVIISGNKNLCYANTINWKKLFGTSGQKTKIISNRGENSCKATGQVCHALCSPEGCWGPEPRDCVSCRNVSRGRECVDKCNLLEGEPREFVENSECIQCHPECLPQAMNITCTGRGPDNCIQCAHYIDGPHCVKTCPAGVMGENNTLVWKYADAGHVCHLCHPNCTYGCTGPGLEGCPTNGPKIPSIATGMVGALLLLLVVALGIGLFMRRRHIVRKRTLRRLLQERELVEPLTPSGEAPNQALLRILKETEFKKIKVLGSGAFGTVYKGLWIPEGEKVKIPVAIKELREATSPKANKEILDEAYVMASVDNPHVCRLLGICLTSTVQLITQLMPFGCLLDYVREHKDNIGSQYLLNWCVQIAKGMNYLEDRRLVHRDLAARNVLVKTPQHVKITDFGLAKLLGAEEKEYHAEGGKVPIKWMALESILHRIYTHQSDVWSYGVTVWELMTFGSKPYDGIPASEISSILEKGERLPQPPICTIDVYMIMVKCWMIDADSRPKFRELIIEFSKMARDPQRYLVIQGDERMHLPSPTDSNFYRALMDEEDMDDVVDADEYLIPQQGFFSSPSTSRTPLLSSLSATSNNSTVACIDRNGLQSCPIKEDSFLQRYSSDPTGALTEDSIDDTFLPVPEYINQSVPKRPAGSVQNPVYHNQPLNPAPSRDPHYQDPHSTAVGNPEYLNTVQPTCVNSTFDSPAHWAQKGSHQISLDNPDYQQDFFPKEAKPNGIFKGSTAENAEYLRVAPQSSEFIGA

[6] = target: ROCK2 (human) (UniProt O75116); test: Assessment of ROCK2 Kinase Activity (ProQinase Setup)
[7] = target: EGFR (UniProt P00533)
EGFR, sequence (P00533 whole entry, looked up): as above

[8] = target: MAPK14 (UniProt Q16539); test: p38-alpha Inhibition
MAPK14, sequence (Q16539 whole entry, looked up): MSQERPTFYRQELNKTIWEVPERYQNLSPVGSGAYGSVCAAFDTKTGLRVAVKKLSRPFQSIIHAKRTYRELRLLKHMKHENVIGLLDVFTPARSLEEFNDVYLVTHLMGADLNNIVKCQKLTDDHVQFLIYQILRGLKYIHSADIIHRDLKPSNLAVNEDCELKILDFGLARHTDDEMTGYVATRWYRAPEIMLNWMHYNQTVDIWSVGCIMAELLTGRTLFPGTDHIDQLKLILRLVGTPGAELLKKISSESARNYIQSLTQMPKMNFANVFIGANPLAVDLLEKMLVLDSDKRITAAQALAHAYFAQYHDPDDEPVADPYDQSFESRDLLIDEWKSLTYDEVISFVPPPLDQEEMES

[9] = target: EGFR (human) (UniProt P00533); settings: a431
[10] = target: EGFR (UniProt P00533); remark: listed apart in the source
[11] = target: EGFR (UniProt P00533); remark: listed apart in the source
[12] = target: PIK3CA (human) (UniProt P42336); test: Assessment of PI3K Dependent Phosphorylation of p-AKT(T308) in PC3 Cells; settings: pc-3
[13] = target: EGFR (human) (UniProt P00533)
[14] = target: EGFR (UniProt P00533); remark: listed apart in the source
[15] = target: EGFR (UniProt P00533); remark: listed apart in the source
[16] = target: EGFR (murine) (UniProt P00533); settings: nih3t3
[17] = target: CDK2 (human) (UniProt P24941); test: Enzyme Assay
[18] = target: CDK2 (human) (UniProt P24941); test: Enzyme Assay; remark: listed apart in the source
[19] = target: EGFR (human) (UniProt P00533); remark: listed apart in the source
[20] = target: EGFR (UniProt P00533); remark: listed apart in the source
[21] = target: EGFR (UniProt P00533); settings: concentration not given here
[22] = target: EGFR (murine) (UniProt P00533); settings: nih3t3; remark: listed apart in the source
[23] = target: EGFR (Balb/c mice) (UniProt P00533); settings: dose or concentration not given here
[24] = target: CDK2 (UniProt P24941); test: Enzyme Assay; settings: concentration not given here
[25] = target: MAPK14 (UniProt Q16539); test: p38-alpha Kinase Inhibition; settings: concentration not given here
[26] = target: ROCK2 (UniProt O75116); test: ROCK2 Kinase Inhibition; settings: concentration not given here
ROCK2, sequence (O75116 whole entry, looked up): as the sequence (O75116 whole entry, looked up) above

[27] = target: EGFR (UniProt P00533); remark: listed apart in the source
[28] = target: EGFR (human) (UniProt P00533); settings: a431; remark: listed apart in the source
[29] = target: EGFR (mouse) (UniProt P00533); settings: mk
[30] = target: PIK3CA (human) (UniProt P42336); test: Assessment of PIK3CA Kinase Activity in NZB5 Cells

MAPK14 (human), sequence (Q16539 whole entry, looked up): as the sequence (Q16539 whole entry, looked up) above

SMILES: CSc1nc(-c2ccc(F)cc2)c(-c2ccnc(NC(C)=O)c2)n1CCN1CCCCC1
- IC50 [1]: > 10000 nM
- IC50 [2]: > 10000 nM

SMILES: C[C@H](Nc1[nH]cnc2c3ccccc3nc1-2)c1ccccc1
- IC50 [5]: > 100000 nM

SMILES: CCOCn1c(-c2ccncc2)c(-c2ccc(F)cc2)c2ncccc21
- IC50 [8]: 21 nM

SMILES: CSc1nc(-c2ccc(F)cc2)c(-c2ccnc(NC(C)=O)c2)n1CCOCCO
- IC50 [1]: > 100000 nM
- IC50 [2]: > 100000 nM

SMILES: N#CC(C#N)=Cc1cc(O)cc(O)c1
- Ki [9]: 10000 nM

SMILES: CSc1cnc(-c2ccc(NC(=O)Nc3ccc(N4CCOCC4=O)cc3)cc2)nc1N1CCOCC1
- IC50 [12]: 141 nM

SMILES: COC(=O)CCc1c(SSc2c(CCC(=O)OC)c3ccccc3n2C)n(C)c2ccccc12
- IC50 [13]: > 100000 nM

SMILES: COc1ccc(Nc2ncc3c(n2)N(c2ccccc2)C(=O)N(c2ccc(OC)cc2)C3)cc1
- IC50 [14]: 180 nM

SMILES: Cc1oncc1C(=O)Nc1ccc(C(F)(F)F)cc1
- IC50 [15]: 30000 nM
- IC50 [16]: > 100000 nM

SMILES: CC[C@H](CO)Nc1cc(NCc2ccccc2)c2ncn(C(C)C)c2n1
- IC50 [17]: 300 nM
- IC50 [18]: 180 nM

SMILES: O=C1C(CO)=C(CO)C(=O)c2c(O)ccc(O)c21
- IC50 [19]: 15000 nM

SMILES: O=C1Nc2ccccc2C1=Cc1ccc(O)cc1O
- IC50 [20]: < 3900 nM

SMILES: c1ccc(Cn2ccc3cc(Nc4ncnc5ccccc45)ccc32)cc1
- inhibition [21]: 74%

SMILES: CC(C)(C)NC(=O)c1cccc(Oc2ccc(Nc3ncnc4ccn(CCO)c34)cc2Cl)c1
- IC50 [19]: 2.3 nM

SMILES: COc1cc2ncnc(Nc3cccc(C(F)(F)F)c3)c2cc1OC
- IC50 [22]: < 6 nM
- toxicity [23]: 40%

SMILES: CC[C@H](CO)Nc1cc(NCc2ccc(-c3ccccn3)cc2)c2ncn(C(C)C)c2n1
- IC50 [17]: 360 nM
- IC50 [18]: 250 nM

SMILES: Nc1cc2ncnc(Nc3cccc(Br)c3)c2cn1
- IC50 [27]: 110 nM

SMILES: N#C/C(=C\c1ccc(O)c(O)c1)C(=O)O
- Ki [9]: 23600 nM

SMILES: COc1ccc(OC)c(Cc2cc3c(NC4C=C(Br)C=CC4)nc(N)nc3[nH]2)c1 (stereo not given)
- IC50 [28]: > 50000 nM

SMILES: COc1ccc(N2Cc3cnc(Nc4ccccc4)nc3N(c3ccccc3)C2=O)cc1
- IC50 [14]: 360 nM and 350 nM

SMILES: COc1cc(O)c2c(=O)c(-c3cccc(Cl)c3)c[nH]c2c1
- IC50 [29]: 11400 nM

SMILES: COc1cc(O)c2c(=O)c(-c3cccc(Cl)c3)coc2c1
- IC50 [29]: 45200 nM

SMILES: Cc1ccc(S(=O)(=O)CCOC(=O)c2cccc(-c3cc(C(=O)Nc4ccncc4)ccc3C(C)N)c2)cc1 (stereo not given)
- IC50 [4]: 100 to 1000 nM

SMILES: Cc1ccc([N+](=O)[O-])cc1S(=O)(=O)N(C)N=Cc1cnn2cccc(Br)c12
- IC50 [30]: > 20000 nM

SMILES: COc1ccc(C=C2C(=O)Nc3ccccc32)cc1F
- IC50 [20]: 3700 to 37000 nM

SMILES: c1ccc(CNc2ncnc3ncccc23)cc1
- IC50 [10]: > 10000 nM

SMILES: CN(C)CCCn1c(SSc2c(C(=O)Nc3ccccc3)c3ccccc3n2CCCN(C)C)c(C(=O)Nc2ccccc2)c2ccccc21
- IC50 [13]: 26000 nM

Now from value to molecule:

- IC50 [3]: 3600 nM
SMILES: COc1cc2ncnc(Nc3ccc(C)c(NC(=O)c4ccccc4)c3)c2cc1OC

- IC50 [4]: 100 to 1000 nM
SMILES: COC(=O)c1cc2c(-c3cc(C(=O)Nc4ccncc4)ccc3C(C)N)cccc2[nH]1 (stereo not given)

- IC50 [6]: 100 to 1000 nM
SMILES: NCc1ccc(C(=O)Nc2ccncc2F)cc1-c1cccc(C(=O)OC[C@H]2CCCO2)c1

- IC50 [7]: 26 nM
SMILES: Nc1ccc(-c2cc3c(N4CCCc5ccccc54)ncnc3[nH]2)cc1

- IC50 [10]: 120 nM
- IC50 [11]: 84 nM
SMILES: CN(C)c1ccc2ncnc(Nc3cccc(Br)c3)c2c1

- IC50 [12]: < 10 nM
SMILES: CSc1c(-c2ccncc2)nc(-c2ccc(NC(=O)Nc3ccc(C(N)=O)cc3)cc2)nc1N1CCOCC1

- IC50 [6]: 100 to 1000 nM
SMILES: COCCCOC(=O)c1cccc(-c2cc(C(=O)Nc3ccncc3)ccc2CN)c1

- IC50 [12]: < 10 nM
SMILES: CCOc1cnc(-c2ccc(NC(=O)Nc3ccc(NS(C)(=O)=O)cc3)cc2)nc1N1CCOCC1

- IC50 [12]: 291 nM
SMILES: CSc1c(-c2ccncc2)nc(-c2ccc(NC(=O)Nc3ccc(N4CCOCC4=O)cc3)cc2)nc1N1CCOCC1

- activity [24]: 34%
- activity [25]: 38%
- activity [26]: 33%
SMILES: Cn1cc(C2=C(c3cn(CCCN)c4ccccc34)C(=O)NC2=O)c2ccccc21

- IC50 [10]: 578 nM
SMILES: Nc1cc2ncnc(NCc3ccccc3)c2cn1

- IC50 [8]: 6700 nM
SMILES: ON1=CC=Cc2[nH]c(c3ccncc3)c(c4ccc(F)cc4)c12

- IC50 [15]: > 100000 nM
SMILES: NC(=O)c1cc2ccc(O)c(O)c2cn1

- IC50 [19]: 36 nM
SMILES: O=C(O)C1=Cc2c(Cl)ncnc2NCC1
